Source: patent US20040097596A1 (priority 2000, published 2004)
Like-named read-outs stand apart in the source and are kept apart here.

How the values were obtained:
Oidium lycopersici = assay: Powdery mildew assay on detached tomato leaflets, % disease control, observed vs expected (Colby); format: in vivo
Phytophthora infestans = format: in vivo; settings: for E, Expected % disease control / O, Observed % disease control / O-E: A76 potato
[1] = tomato 980 Le/MM/Cf9-8, 0.1 ppm, Feb. 16, 2001
[2] = tomato 980 Le/MM/Cf9-8, 0.1 ppm, Feb. 17, 2001
[3] = tomato 980 Le/MM/Cf9-8, 0.1 ppm, Feb. 18, 2001
[4] = tomato 980 Le/MM/Cf9-8, 0.1 ppm, Feb. 19, 2001
[5] = tomato 980 Le/MM/Cf9-8, 0.1 ppm, Feb. 20, 2001
[6] = tomato 980 Le/MM/Cf9-44, 0.1 ppm, Feb. 16, 2001
[7] = tomato 980 Le/MM/Cf9-44, 0.1 ppm, Feb. 17, 2001
[8] = tomato 980 Le/MM/Cf9-44, 0.1 ppm, Feb. 18, 2001
[9] = tomato 980 Le/MM/Cf9-44, 0.1 ppm, Feb. 19, 2001
[10] = tomato 980 Le/MM/Cf9-44, 0.1 ppm, Feb. 20, 2001
[11] = tomato 981 Le/MM/Cf9-22, 0.1 ppm, Feb. 16, 2001
[12] = tomato 981 Le/MM/Cf9-22, 0.1 ppm, Feb. 17, 2001
[13] = tomato 981 Le/MM/Cf9-22, 0.1 ppm, Feb. 18, 2001
[14] = tomato 981 Le/MM/Cf9-22, 0.1 ppm, Feb. 19, 2001
[15] = tomato 981 Le/MM/Cf9-22, 0.1 ppm, Feb. 20, 2001
[16] = 0.03 ppm, Jan. 25, 2001, FB 2001/3001
[17] = 0.03 ppm, Jan. 26, 2001, FB 2001/3001
[18] = 0.03 ppm, Jan. 27, 2001, FB 2001/3001
[19] = 0.03 ppm, Jan. 28, 2001, FB 2001/3001
[20] = 0.03 ppm, Jan. 29, 2001, FB 2001/3001
[21] = 0.1 ppm, Jan. 25, 2001, FB 2001/3001
[22] = 0.1 ppm, Jan. 26, 2001, FB 2001/3001
[23] = 0.1 ppm, Jan. 27, 2001, FB 2001/3001
[24] = 0.1 ppm, Jan. 28, 2001, FB 2001/3001
[25] = 0.1 ppm, Jan. 29, 2001, FB 2001/3001
[26] = 0.3 ppm, Jan. 25, 2001, FB 2001/3001
[27] = 0.3 ppm, Jan. 26, 2001, FB 2001/3001
[28] = 0.3 ppm, Jan. 27, 2001, FB 2001/3001
[29] = 0.3 ppm, Jan. 28, 2001, FB 2001/3001
[30] = 0.3 ppm, Jan. 29, 2001, FB 2001/3001

CO/C=C(/C(=O)OC)c1ccccc1Oc1cc(Oc2ccccc2C#N)ncn1 [Azoxystrobin, azoxystrobin]
performance in combination with the transgenic line (indicative of synergy) (Oidium lycopersici; all three transgenic tomato lines, observed vs expected disease control): better than expected
E, expected disease control (Oidium lycopersici; [1]): 97.5%
O, observed disease control (Oidium lycopersici; [1]): 93.01%
O-E (Oidium lycopersici; [1]): −4.49
E, expected disease control (Oidium lycopersici; [2]): 92.53%
O, observed disease control (Oidium lycopersici; [2]): 89.64%
O-E (Oidium lycopersici; [2]): −2.89
E, expected disease control (Oidium lycopersici; [3]): 79.68%
O, observed disease control (Oidium lycopersici; [3]): 86.84%
O-E (Oidium lycopersici; [3]): 7.16
E, expected disease control (Oidium lycopersici; [4]): 74.81%
O, observed disease control (Oidium lycopersici; [4]): 87.5%
O-E (Oidium lycopersici; [4]): 12.69
E, expected disease control (Oidium lycopersici; [5]): 67.47%
O, observed disease control (Oidium lycopersici; [5]): 81.11%
O-E (Oidium lycopersici; [5]): 13.64
E, expected disease control (Oidium lycopersici; [6]): 93.9%
O, observed disease control (Oidium lycopersici; [6]): 100%
O-E (Oidium lycopersici; [6]): 6.1
E, expected disease control (Oidium lycopersici; [7]): 84.21%
O, observed disease control (Oidium lycopersici; [7]): 97.12%
O-E (Oidium lycopersici; [7]): 12.91
E, expected disease control (Oidium lycopersici; [8]): 67.22%
O, observed disease control (Oidium lycopersici; [8]): 89.72%
O-E (Oidium lycopersici; [8]): 22.5
E, expected disease control (Oidium lycopersici; [9]): 61.62%
O, observed disease control (Oidium lycopersici; [9]): 86.36%
O-E (Oidium lycopersici; [9]): 24.74
E, expected disease control (Oidium lycopersici; [10]): 52.54%
O, observed disease control (Oidium lycopersici; [10]): 79.57%
O-E (Oidium lycopersici; [10]): 27.03
E, expected disease control (Oidium lycopersici; [11]): 93.41%
O, observed disease control (Oidium lycopersici; [11]): 96.01%
O-E (Oidium lycopersici; [11]): 2.6
E, expected disease control (Oidium lycopersici; [12]): 81.74%
O, observed disease control (Oidium lycopersici; [12]): 96.55%
O-E (Oidium lycopersici; [12]): 14.81
E, expected disease control (Oidium lycopersici; [13]): 69.49%
O, observed disease control (Oidium lycopersici; [13]): 89.47%
O-E (Oidium lycopersici; [13]): 19.98
E, expected disease control (Oidium lycopersici; [14]): 63.9%
O, observed disease control (Oidium lycopersici; [14]): 90.91%
O-E (Oidium lycopersici; [14]): 27.01
E, expected disease control (Oidium lycopersici; [15]): 56.11%
O, observed disease control (Oidium lycopersici; [15]): 87.84%
O-E (Oidium lycopersici; [15]): 31.73
E, Expected % disease control (Phytophthora infestans; [16]): 85.1%
O, Observed % disease control (Phytophthora infestans; [16]): 86.1%
O-E (Phytophthora infestans; [16]): 1.0
E, Expected % disease control (Phytophthora infestans; [17]): 91.0%
O, Observed % disease control (Phytophthora infestans; [17]): 91.0%
O-E (Phytophthora infestans; [17]): 0.0
E, Expected % disease control (Phytophthora infestans; [18]): 84.2%
O, Observed % disease control (Phytophthora infestans; [18]): 89.6%
O-E (Phytophthora infestans; [18]): 5.4
E, Expected % disease control (Phytophthora infestans; [19]): 56.4%
O, Observed % disease control (Phytophthora infestans; [19]): 84.9%
O-E (Phytophthora infestans; [19]): 28.4
E, Expected % disease control (Phytophthora infestans; [20]): 38.7%
O, Observed % disease control (Phytophthora infestans; [20]): 63.8%
O-E (Phytophthora infestans; [20]): 25.1
E, Expected % disease control (Phytophthora infestans; [21]): 91.8%
O, Observed % disease control (Phytophthora infestans; [21]): 91.7%
O-E (Phytophthora infestans; [21]): −0.1
E, Expected % disease control (Phytophthora infestans; [22]): 95.1%
O, Observed % disease control (Phytophthora infestans; [22]): 98.6%
O-E (Phytophthora infestans; [22]): −1.6
E, Expected % disease control (Phytophthora infestans; [23]): 93.1%
O, Observed % disease control (Phytophthora infestans; [23]): 91.7%
O-E (Phytophthora infestans; [23]): −1.4
E, Expected % disease control (Phytophthora infestans; [24]): 76.1%
O, Observed % disease control (Phytophthora infestans; [24]): 89.9%
O-E (Phytophthora infestans; [24]): 13.9
E, Expected % disease control (Phytophthora infestans; [25]): 51.1%
O, Observed % disease control (Phytophthora infestans; [25]): 86.9%
O-E (Phytophthora infestans; [25]): 35.8
E, Expected % disease control (Phytophthora infestans; [26]): 95.5%
O, Observed % disease control (Phytophthora infestans; [26]): 97.2%
O-E (Phytophthora infestans; [26]): 1.7
E, Expected % disease control (Phytophthora infestans; [27]): 97.2%
O, Observed % disease control (Phytophthora infestans; [27]): 98.7%
O-E (Phytophthora infestans; [27]): 1.5
E, Expected % disease control (Phytophthora infestans; [28]): 95.6%
O, Observed % disease control (Phytophthora infestans; [28]): 97.9%
O-E (Phytophthora infestans; [28]): 2.4
E, Expected % disease control (Phytophthora infestans; [29]): 87.1%
O, Observed % disease control (Phytophthora infestans; [29]): 98.0%
O-E (Phytophthora infestans; [29]): 10.9
E, Expected % disease control (Phytophthora infestans; [30]): 74.6%
O, Observed % disease control (Phytophthora infestans; [30]): 97.0%
O-E (Phytophthora infestans; [30]): 22.4
performance in combination with A76 (indicative of synergy) (Phytophthora infestans; in combination with A76 potato, observed vs expected disease control): better than expected
